From patent US9085806B2, “Methods for treating infection involving identification of a carbapanemase gene” (priority 2007, dated 2015) come the findings set out here.

SMILES strings stand for the structures.

The test system of one test is E. coli ATCC 25922 (Strain ID 300960). Nature of the test: Antimicrobial susceptibility testing, broth microdilution (CLSI). Format: cell-based. Conditions: Escherichia coli, ATCC25922; Strain ID 300960 ESCCOL, wild-type negative control; Mueller-Hinton broth; read-out: minimum inhibition concentration (MIC). The source says: (§1) Carbapenem-resistant Klebsiella and E. coli were identified by broth microdilution as described by CLSI from the BD ID/AST microbial bank (1). Wild-type (Ampicillin sensitive) E. coli ATCC 25922 (Strain ID 300960) was used through out the experiments as a negative control. Three strains previously determined to contain KPC-1, KPC-2, and KPC-3 (Strain ID 301916=KPC-1, 301917=KPC-2, 301918=KPC-3) were used as positive controls (4). […] ESBL positive strains were identified using the CLSI recommended broth microdilution assay (2). Prior to any processing or extraction, all strains were streaked out on Trypticase Soy Agar (TSA) plates containing 5% Sheep red blood cells (BD Diagnostic Systems, Sparks, Md.) and grown at 35° C. overnight.
(§2) Antimicrobial susceptibility testing was performed using Mueller-Hinton broth (BD Diagnostic Systems, Sparks, Md.) as described by CLSI (1). Antimicrobial powders were acquired from the following companies; Ampicillin (Amp) and Cefotaxime (CTX) (Sigma Chemical Co., St. Louis, Mo.), Ceftazidime (CAZ) (Eli Lilly, Indianapolis, Ind.), Clavulanic acid (Smith-Kline, King of Prussia, Pa.), Imipenem (IPM) (Merck & Co., Rahway, N.J.).
(§3) The BD ID/AST Microbial Bank was screened for carbapenem-resistant Klebsiella and E. coli with broth microdilution as described by CLSI (2). Klebsiella spp. and E. coli were chosen because they are the primary reservoir species for the plasmid-borne KPC gene.
(§4) ESBL positive strains were identified using the CLSI recommended broth microdilution assay (2). Briefly, this broth microdilution assay has a two-fold dilution scheme between a defined range of the antimicrobial agent. For example, where the defined range of the antimicrobial agent is […], the two-fold dilution between wells is represented by 0.25, 0.5, 1, 2, 4, 8, and 16 μg/ml. To identify ESBL positive strains, growth is evaluated in wells containing the antimicrobial agent of interest at these various two-fold dilutions across the defined range either alone or in combination with Clavulanic acid in order to determine the MIC for the antimicrobial agent alone or in combination with Clavulanic acid. […] A wild-type E. coli Strain ID 300960 was also screened and used as a negative control for all of the real-time assays.
In general terms: Broth dilution looks for growth in wells or tubes with falling amounts of substance.
Consider `CC1(C)S[C@@H]2[C@H](NC(=O)[C@H](N)c3ccccc3)C(=O)N2[C@H]1C(=O)O` [Amp, Ampicillin], for which the MIC was at most 0.25 mg/L.

A further test deals with E. coli Strain ID 301888. The test is described as above. Format: cell-based. The conditions noted are these: Escherichia coli; Strain ID 301888 ESCCOL, ESBL positive; Mueller-Hinton broth; read-out: minimum inhibition concentration (MIC).
Description: as §1, §2, §3, §4
Take `CC1(C)S[C@@H]2[C@H](NC(=O)[C@H](N)c3ccccc3)C(=O)N2[C@H]1C(=O)O` [Amp, Ampicillin]: the MIC is above 32 mg/L.

The next test concerns E. coli Strain ID 301892. The description is as above. The format is cell-based. Conditions: Escherichia coli; Strain ID 301892 ESCCOL, ESBL positive; Mueller-Hinton broth; read-out: minimum inhibition concentration (MIC).
Description: as §1, §2, §3, §4
`CC1(C)S[C@@H]2[C@H](NC(=O)[C@H](N)c3ccccc3)C(=O)N2[C@H]1C(=O)O` [Amp, Ampicillin]: the MIC was above 32 mg/L.

A further test deals with E. coli Strain ID 301894. The test is described as above. The conditions noted are these: Escherichia coli; Strain ID 301894 ESCCOL, ESBL positive; Mueller-Hinton broth; read-out: minimum inhibition concentration (MIC). Format: cell-based.
Description: as §1, §2, §3, §4
Take `CC1(C)S[C@@H]2[C@H](NC(=O)[C@H](N)c3ccccc3)C(=O)N2[C@H]1C(=O)O` [Amp, Ampicillin]: the MIC was above 32 mg/L.

The next test deals with E. coli Strain ID 301896. The test is described as above. Conditions: Escherichia coli; Strain ID 301896 ESCCOL, ESBL positive; Mueller-Hinton broth; read-out: minimum inhibition concentration (MIC). The format is cell-based.
Description: as §1, §2, §3, §4
On to `CC1(C)S[C@@H]2[C@H](NC(=O)[C@H](N)c3ccccc3)C(=O)N2[C@H]1C(=O)O` [Amp, Ampicillin], for which the MIC was above 32 mg/L.

In a further test the test system is E. coli Strain ID 301905. The description is as above. Format: cell-based. The conditions noted are these: Escherichia coli; Strain ID 301905 ESCCOL; Mueller-Hinton broth; read-out: minimum inhibition concentration (MIC).
Description: as §1, §2, §3, §4
Consider `CC1(C)S[C@@H]2[C@H](NC(=O)[C@H](N)c3ccccc3)C(=O)N2[C@H]1C(=O)O` [Amp, Ampicillin], for which the MIC is above 32 mg/L.

Another test concerns E. coli Strain ID 301918 (KPC-3). Described as above. Format: cell-based. Conditions: Escherichia coli; Strain ID 301918 ESCCOL, KPC-3 positive control; Mueller-Hinton broth; read-out: minimum inhibition concentration (MIC).
Description: as §1, §2, §3, §4
In the case of `CC1(C)S[C@@H]2[C@H](NC(=O)[C@H](N)c3ccccc3)C(=O)N2[C@H]1C(=O)O` [Amp, Ampicillin], the MIC was above 32 mg/L.

Another test deals with E. coli Strain ID 301921. Described as above. Conditions: Escherichia coli; Strain ID 301921 ESCCOL, ESBL positive; Mueller-Hinton broth; read-out: minimum inhibition concentration (MIC). Format: cell-based.
Description: as §1, §2, §3, §4
In the case of `CC1(C)S[C@@H]2[C@H](NC(=O)[C@H](N)c3ccccc3)C(=O)N2[C@H]1C(=O)O` [Amp, Ampicillin], the MIC was above 32 mg/L.

The test system of another test is E. coli Strain ID 301922. The description is as above. The format is cell-based. The conditions noted are these: Escherichia coli; Strain ID 301922 ESCCOL, ESBL positive; Mueller-Hinton broth; read-out: minimum inhibition concentration (MIC).
Description: as §1, §2, §3, §4
Turning to `CC1(C)S[C@@H]2[C@H](NC(=O)[C@H](N)c3ccccc3)C(=O)N2[C@H]1C(=O)O` [Amp, Ampicillin], the MIC is above 32 mg/L.

The next test relates to E. coli Strain ID 303364. The test is described as above. The conditions noted are these: Escherichia coli; Strain ID 303364 ESCCOL; Mueller-Hinton broth; read-out: minimum inhibition concentration (MIC). Format: cell-based.
Description: as §1, §2, §3, §4
As to `CC1(C)S[C@@H]2[C@H](NC(=O)[C@H](N)c3ccccc3)C(=O)N2[C@H]1C(=O)O` [Amp, Ampicillin], the MIC is above 32 mg/L.

The test system of a further test is E. coli Strain ID 303365. The description is as above. The format is cell-based. The conditions noted are these: Escherichia coli; Strain ID 303365 ESCCOL, ESBL positive; Mueller-Hinton broth; read-out: minimum inhibition concentration (MIC).
Description: as §1, §2, §3, §4
As for `CC1(C)S[C@@H]2[C@H](NC(=O)[C@H](N)c3ccccc3)C(=O)N2[C@H]1C(=O)O` [Amp, Ampicillin], the MIC is above 32 mg/L.

A further test has as its system E. coli Strain ID 303369. The description is as above. The format is cell-based. Conditions: Escherichia coli; Strain ID 303369 ESCCOL; Mueller-Hinton broth; read-out: minimum inhibition concentration (MIC).
Description: as §1, §2, §3, §4
On to `CC1(C)S[C@@H]2[C@H](NC(=O)[C@H](N)c3ccccc3)C(=O)N2[C@H]1C(=O)O` [Amp, Ampicillin], for which the MIC is above 32 mg/L.

In a further test the test system is Klebsiella oxytoca Strain ID 300967. The description is as above. The conditions noted are these: Strain ID 300967 KLEOXY, Mueller-Hinton broth, read-out: minimum inhibition concentration (MIC). Format: cell-based.
Description: as §1, §2, §3, §4
`CC1(C)S[C@@H]2[C@H](NC(=O)[C@H](N)c3ccccc3)C(=O)N2[C@H]1C(=O)O` [Amp, Ampicillin]: the MIC was above 32 mg/L.

Another test relates to Klebsiella oxytoca Strain ID 303990. The description is as above. The format is cell-based. Conditions: Strain ID 303990 KLEOXY, Mueller-Hinton broth, read-out: minimum inhibition concentration (MIC).
Description: as §1, §2, §3, §4
As for `CC1(C)S[C@@H]2[C@H](NC(=O)[C@H](N)c3ccccc3)C(=O)N2[C@H]1C(=O)O` [Amp, Ampicillin], the MIC was above 32 mg/L.

The test system of the next test is Klebsiella pneumoniae Strain ID 300996. The test is described as above. Format: cell-based. The conditions noted are these: Strain ID 300996 KLEPNEP, ESBL positive, Mueller-Hinton broth, read-out: minimum inhibition concentration (MIC).
Description: as §1, §2, §3, §4
With `CC1(C)S[C@@H]2[C@H](NC(=O)[C@H](N)c3ccccc3)C(=O)N2[C@H]1C(=O)O` [Amp, Ampicillin], the MIC is above 32 mg/L.

For the next test, the system named is Klebsiella pneumoniae Strain ID 301008. The description is as above. The conditions noted are these: Strain ID 301008 KLEPNEP, Mueller-Hinton broth, read-out: minimum inhibition concentration (MIC). Format: cell-based.
Description: as §1, §2, §3, §4
Take `CC1(C)S[C@@H]2[C@H](NC(=O)[C@H](N)c3ccccc3)C(=O)N2[C@H]1C(=O)O` [Amp, Ampicillin]: the MIC came out at 16 mg/L.

The next test concerns Klebsiella pneumoniae Strain ID 301891. The description is as above. Format: cell-based. The conditions noted are these: Strain ID 301891 KLEPNEP, Mueller-Hinton broth, read-out: minimum inhibition concentration (MIC).
Description: as §1, §2, §3, §4
`CC1(C)S[C@@H]2[C@H](NC(=O)[C@H](N)c3ccccc3)C(=O)N2[C@H]1C(=O)O` [Amp, Ampicillin]: the MIC is above 32 mg/L.

In a further test the test system is Klebsiella pneumoniae Strain ID 301898. The description is as above. Format: cell-based. The conditions noted are these: Strain ID 301898 KLEPNEP, Mueller-Hinton broth, read-out: minimum inhibition concentration (MIC).
Description: as §1, §2, §3, §4
With `CC1(C)S[C@@H]2[C@H](NC(=O)[C@H](N)c3ccccc3)C(=O)N2[C@H]1C(=O)O` [Amp, Ampicillin], the MIC was above 32 mg/L.

The next test concerns Klebsiella pneumoniae Strain ID 301899. The test is described as above. Format: cell-based. Conditions: Strain ID 301899 KLEPNEP, Mueller-Hinton broth, read-out: minimum inhibition concentration (MIC).
Description: as §1, §2, §3, §4
Turning to `CC1(C)S[C@@H]2[C@H](NC(=O)[C@H](N)c3ccccc3)C(=O)N2[C@H]1C(=O)O` [Amp, Ampicillin], the MIC was above 32 mg/L.

The subject of a further test is Klebsiella pneumoniae Strain ID 301916 (KPC-1). Described as above. The conditions noted are these: Strain ID 301916 KLEPNEP, KPC-1 positive control, Mueller-Hinton broth, read-out: minimum inhibition concentration (MIC). Format: cell-based.
Description: as §1, §2, §3, §4
Regarding `CC1(C)S[C@@H]2[C@H](NC(=O)[C@H](N)c3ccccc3)C(=O)N2[C@H]1C(=O)O` [Amp, Ampicillin], the MIC was above 32 mg/L.

The test system of the next test is Klebsiella pneumoniae Strain ID 301917 (KPC-2). The test is described as above. Format: cell-based. Conditions: Strain ID 301917 KLEPNEP, KPC-2 positive control, ESBL positive, Mueller-Hinton broth, read-out: minimum inhibition concentration (MIC).
Description: as §1, §2, §3, §4
Take `CC1(C)S[C@@H]2[C@H](NC(=O)[C@H](N)c3ccccc3)C(=O)N2[C@H]1C(=O)O` [Amp, Ampicillin]: the MIC was above 32 mg/L.

For another test, the system named is Klebsiella pneumoniae Strain ID 301919. The description is as above. Conditions: Strain ID 301919 KLEPNEP, ESBL positive, Mueller-Hinton broth, read-out: minimum inhibition concentration (MIC). Format: cell-based.
Description: as §1, §2, §3, §4
For `CC1(C)S[C@@H]2[C@H](NC(=O)[C@H](N)c3ccccc3)C(=O)N2[C@H]1C(=O)O` [Amp, Ampicillin], the MIC is above 32 mg/L.

A further test concerns Klebsiella pneumoniae Strain ID 301920. Described as above. The format is cell-based. The conditions noted are these: Strain ID 301920 KLEPNEP, ESBL positive, Mueller-Hinton broth, read-out: minimum inhibition concentration (MIC).
Description: as §1, §2, §3, §4
As to `CC1(C)S[C@@H]2[C@H](NC(=O)[C@H](N)c3ccccc3)C(=O)N2[C@H]1C(=O)O` [Amp, Ampicillin], the MIC was above 32 mg/L.

The next test concerns Klebsiella pneumoniae Strain ID 303375. The description is as above. The format is cell-based. Conditions: Strain ID 303375 KLEPNEP, Mueller-Hinton broth, read-out: minimum inhibition concentration (MIC).
Description: as §1, §2, §3, §4
Regarding `CC1(C)S[C@@H]2[C@H](NC(=O)[C@H](N)c3ccccc3)C(=O)N2[C@H]1C(=O)O` [Amp, Ampicillin], the MIC was above 32 mg/L.
